Laboratory results: US9765035B2 (priority 2013, dated 2017)
Read-outs that look alike come from different tables or passages of the source.

Legend:
[1] = test system: RKO cells, mono-methyl arginine; assay: RKO Methylation Assay (In Cell Western for mono-methyl arginine); type: cell-based; conditions: Homo sapiens
Source text: RKO adherent cells were purchased from ATCC (American Type Culture Collection), Manassas, Va., USA. DMEM/Glutamax medium, penicillin-streptomycin, heat inactivated fetal bovine serum, 0.05% trypsin and D-PBS were purchased from Life Technologies, Grand Island, N.Y., USA. Odyssey blocking buffer, 800CW goat anti-rabbit IgG (H+L) antibody, and Licor Odyssey infrared scanner were purchased from Licor Biosciences, Lincoln, Nebr., USA. Mono-methyl arginine antibody was purchased from Cell Signaling Technology, Danvers, Mass., USA. Methanol was purchased from VWR, Franklin, Mass., USA. 10% Tween 20 was purchased from KPL, Inc., Gaithersburg, Md., USA. DRAQ5 was purchased from Biostatus Limited, Leicestershire, UK.
RKO adherent cells were maintained in growth medium (DMEM/Glutamax medium supplemented with 10% v/v heat inactivated fetal bovine serum and 100 units/mL penicillin-streptomycin) and cultured at 37° C. under 5% CO2.
Cell Treatment, in Cell Western (ICW) for Detection of Mono-Methyl Arginine and DNA Content. […] Compound (100 nL) from a 96-well source plate was added directly to 384 well cell plate. Plates were incubated at 37° C., 5% CO2 for 72 hours. After three days of incubation, plates were brought to room temperature outside of the incubator for ten minutes and blotted on paper towels to remove cell media. 50 μL of ice cold 100% methanol was added directly to each well and incubated for 30 min at room temperature. After 30 min, plates were transferred to a Biotek EL406 plate washer and washed 2 times with 100 μL per well of wash buffer (1×PBS). Next 60 μL per well of Odyssey blocking buffer (Odyssey Buffer with 0.1% Tween 20 (v/v)) were added to each plate and incubated 1 hour at room temperature. Blocking buffer was removed and 20 μL per well of primary antibody was added (mono-methyl arginine diluted 1:200 in Odyssey buffer with 0.1% Tween 20 (v/v)) and plates were incubated overnight (16 hours) at 4° C. Plates were washed 5 times with 100 μL per well of wash buffer. […] The plates were washed 5 times with 100 μL per well wash buffer then 2 times with 100 μL per well of water. Plates were allowed to dry at room temperature then imaged on the Licor Odyssey machine which measures integrated intensity at 700 nm and 800 nm wavelengths. Both 700 and 800 channels were scanned.
Calculations: First, the ratio for each well was determined by:
Each plate included fourteen control wells of DMSO only treatment (minimum activation) as well as fourteen control wells for maximum activation treated with 20 μM of a reference compound. The average of the ratio values for each control type was calculated and used to determine the percent activation for each test well in the plate. Reference compound was serially diluted three-fold in DMSO for a total of nine test concentrations, beginning at 20 μM. Percent activation was determined and EC30 curves were generated using triplicate wells per concentration of compound.

human PRMT1 = target: T1, human PRMT1 (Homo sapiens, UniProt Q99873); assay: biochemical
T1 construct: GST-tagged PRMT1; made in house; host or cells: High Five insect cells (baculovirus)
Source text: General Materials. S-adenosylmethionine (SAM), S-adenosylhomocysteine (SAH), bicine, Tween20, dimethylsulfoxide (DMSO), bovine skin gelatin (BSG), and Tris(2-carboxyethyl)phosphine hydrochloride solution (TCEP) were purchased from Sigma-Aldrich at the highest level of purity possible. ^3H-SAM was purchase from American Radiolabeled Chemicals with a specific activity of 80 Ci/mmol. 384-well streptavidin Flashplates were purchased from PerkinElmer.
Substrates. Peptide representative of human histone H4 residues 36-50 was synthesized with an N-terminal linker-affinity tag motif and a C-terminal amide cap by 21st Century Biochemicals. The peptide was purified by high-performance liquid chromatography (HPLC) to greater than 95% purity and confirmed by liquid chromatography mass spectrometry (LC-MS). The sequence was Biot-Ahx-[…]-amide (SEQ ID NO.:1).
Molecular Biology: Full-length human PRMT1 isoform 1 (NM_001536.5) transcript clone was amplified from an HEK 293 cDNA library, incorporating flanking 5′ sequence encoding a FLAG tag ([…]) (SEQ ID NO.:2) fused directly to Met 1 of PRMT1. The amplified gene was subcloned into pFastBacI (Life Technologies) modified to encode an N-terminal GST tag and a TEV cleavage sequence
Protein Expression. Recombinant baculovirus were generated according to Bac-to-Bac kit instructions (Life Technologies). Protein over-expression was accomplished by infecting exponentially growing High Five insect cell culture at 1.5×10^6 cell/ml with 1:100 ratio of virus. Infections were carried out at 27° C. for 48 hours, harvested by centrifugation, and stored at −80° C. for purification.
Protein Purification. […] GST-tagged PRMT1 was eluted with 50 mM Tris, 2 mM glutathione, pH 7.8, dialysed in buffer A and concentrated to 1 mg/mL. The purity of recovered protein was 73%. Reference: Wasilko, D. J. and S. E. Lee: “TIPS: titerless infected-cells preservation and scale-up” Bioprocess J., 5 (2006), pp. 29-32.
General Procedure for PRMT1 Enzyme Assays on Peptide Substrates. The assays were all performed in a buffer consisting of 20 mM Bicine (pH=7.6), 1 mM TCEP, 0.005% BSG, and 0.002% Tween 20, prepared on the day of use. Compounds in 100% DMSO (1 ul) were spotted into a polypropylene 384-well V-bottom plates (Greiner) using a Platemate Plus outfitted with a 384-channel head (Thermo Scientific). DMSO (1 ul) was added to Columns 11, 12, 23, 24, rows A-H for the maximum signal control and 1 ul of SAH, a known product and inhibitor of PRMT1, was added to columns 11, 12, 23, 24, rows I-P for the minimum signal control. A cocktail (40 ul) containing the PRMT1 enzyme was added by Multidrop Combi (Thermo-Fisher). The compounds were allowed to incubate with PRMT1 for 30 min at room temperature, then a cocktail (10 ul) containing SAM and peptide was added to initiate the reaction (final volume=51 ul). The final concentrations of the components were as follows: PRMT1 was 0.5 nM, ^3H-SAM was 200 nM, non-radiolabeled SAM was 1.5 uM, peptide was 20 nM, SAH in the minimum signal control wells was 1 mM, and the DMSO concentration was 2%. The assays were stopped by the addition of non-radiolabeled SAM (10 ul) to a final concentration of 300 uM, which dilutes the ^3H-SAM to a level where its incorporation into the peptide substrate is no longer detectable. 50 ul of the reaction in the 384-well polypropylene plate was then transferred to a 384-well Flashplate and the biotinylated peptides were allowed to bind to the streptavidin surface for at least 1 hour before being washed once with 0.1% Tween20 in a Biotek EL×405 plate washer. The plates were then read in a PerkinElmer TopCount plate reader to measure the quantity of ^3H-labeled peptide bound to the Flashplate surface, measured as disintegrations per minute (dpm) or alternatively, referred to as counts per minute (cpm).
Where dpm=disintegrations per minute, cmpd=signal in assay well, and min and max are the respective minimum and maximum signal controls. […]

[2] = In Cell Western EC30, RKO cells, 72 hours, single experiment or average of multiple experiments, read-out: RGG ICW
[3] = In Cell Western, RKO cells, 72 hours, read-out: RGG ICW EC30
[4] = biochemical evaluation, peptide substrate, read-out: PRMT1 IC50
[5] = single experiment or average of multiple experiments, read-out: PRMT1 biochemical evaluation (numerical)
[6] = RKO, 72 h, read-out: RGG ICW EC30

T1 sequence (Q99873 other isoform, or with tags, fused parts or gaps): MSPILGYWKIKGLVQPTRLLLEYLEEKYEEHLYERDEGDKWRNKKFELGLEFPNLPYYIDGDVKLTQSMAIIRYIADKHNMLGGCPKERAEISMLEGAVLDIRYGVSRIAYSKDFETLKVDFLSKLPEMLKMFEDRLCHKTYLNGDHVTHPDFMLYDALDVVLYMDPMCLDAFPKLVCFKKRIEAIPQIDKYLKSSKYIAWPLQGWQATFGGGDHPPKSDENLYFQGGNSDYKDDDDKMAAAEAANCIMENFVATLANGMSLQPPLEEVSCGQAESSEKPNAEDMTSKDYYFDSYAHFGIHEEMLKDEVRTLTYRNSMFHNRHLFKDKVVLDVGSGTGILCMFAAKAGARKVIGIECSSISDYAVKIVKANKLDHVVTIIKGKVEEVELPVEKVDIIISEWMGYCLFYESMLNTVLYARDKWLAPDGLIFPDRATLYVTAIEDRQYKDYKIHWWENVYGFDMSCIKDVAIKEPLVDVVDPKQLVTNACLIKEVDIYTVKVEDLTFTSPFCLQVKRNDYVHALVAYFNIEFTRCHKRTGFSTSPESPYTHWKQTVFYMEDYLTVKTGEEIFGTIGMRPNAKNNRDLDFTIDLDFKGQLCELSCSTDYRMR

| Compound | EC30 [1, 2] [nM] | EC30 [1, 3] [nM] | IC50 (human PRMT1; [4]) [nM] | IC50 (human PRMT1; [5]) [nM] | EC30 [1, 6] [nM] | EC30 ([1]; RKO, 72 h, read-out: RGG ICW) [nM] |
| --- | --- | --- | --- | --- | --- | --- |
| CN(CCN)Cc1n[nH]c2ccc(OCc3ccccc3)cc12 [Compound 1B] | 1710 | < 3000 | < 100 | 3.59 | – | – |
| CC(C)COc1ccc2[nH]nc(CN(C)CCN)c2c1 [Compound 2, N1-((5-iso-butoxy-1H-indazol-3-yl)methyl)-N1-methylethane-1,2-diamine] | 4210 | 3010 to 12000 | < 100 | 21 | – | – |
| CNCCN(C)Cc1nn(C)c2ccc(OCC(C)C)cc12 [Compound 3, N^1-((5-iso-butoxy-1-methyl-1H-indazol-3-yl)methyl)-N^1,N^2-dimethylethane-1,2-diamine] | 14000 | > 12000 | < 100 | 56.2 | – | – |
| CNCCN(C)Cc1n[nH]c2ccc(OCCOC)cc12 [Compound 5, N^1-((5-(2-methoxyethoxy)-1H-indazol-3-yl)methyl)-N^1,N^2-dimethylethane-1,2-diamine] | 11400 | 3010 to 12000 | < 100 | 38.5 | – | – |
| CNCCN(C)Cc1n[nH]c2ccc(OCCCOC)cc12 [Compound 6] | 1550 | < 3000 | < 100 | 19 | – | – |
| CNCCN(C)Cc1n[nH]c2ccc(OCCc3ccccc3)cc12 [Compound 7] | 791 | < 3000 | < 100 | 6.6 | – | – |
| CNCCN(C)Cc1n[nH]c2ccc(OCCC(C)C)cc12 [Compound 8] | 930 | < 3000 | < 100 | 7.83 | – | – |
| CNCCN(C)Cc1n[nH]c2ccc(OC(C)Cc3ccccc3)cc12 (stereo not shown) [Compound 9] | 3430 | 3010 to 12000 | < 100 | 10.8 | – | – |
| CNCCN(C)Cc1n[nH]c2ccc(Oc3ccccc3)cc12 [Compound 10, N^1,N^2-dimethyl-N^1-((5-phenoxy-1H-indazol-3-yl)methyl)ethane-1,2-diamine] | 3830 | 3010 to 12000 | < 100 | 16.2 | – | – |
| CNCCN(C)Cc1n[nH]c2ccc(OC3CCCC3)cc12 [Compound 11] | 724 | < 3000 | < 100 | 3.3 | – | – |
| CNCCN(C)Cc1n[nH]c2ccc(OCc3ccccn3)cc12 [Compound 12] | 6060 | 3010 to 12000 | < 100 | 27.2 | – | – |
| CNCCN(C)Cc1n[nH]c2ccc(OCc3ccc(C#N)cc3)cc12 [Compound 13] | 3820 | 3010 to 12000 | < 100 | 86.9 | – | – |
| CNCCN(C)Cc1n[nH]c2ccc(OCc3cccc(C#N)c3)cc12 [Compound 14] | 4140 | 3010 to 12000 | < 100 | 23.3 | – | – |
| CNCCN(C)Cc1n[nH]c2ccc(OCc3cc[nH]n3)cc12 [Compound 17] | 8990 | – | < 100 | 51.7 | > 12000 | – |
| CNCCN(C)Cc1n[nH]c2ccc(OC3CCCCC3)cc12 [Compound 18] | 582 | < 3000 | < 100 | 40.2 | – | – |
| CNCCN(C)Cc1n[nH]c2ccc(OCC(C)c3ccccc3)cc12 (stereo not shown) [Compound 19] | 680 | < 3000 | < 100 | 15.9 | – | – |
| CNCCN(C)Cc1n[nH]c2ccc(OCc3ccn(C)n3)cc12 [Compound 20] | – | – | < 100 | 6.33 | < 3000 | 710 |
| CNCCN(C)Cc1n[nH]c2cccc(OCc3ccccc3)c12 [Compound 21] | 912 | < 3000 | < 100 | 13.1 | – | – |
| CNCCN(C)Cc1n[nH]c2ccc(Oc3cccc(OC)c3)cc12 [Compound 22] | 1490 | < 3000 | < 100 | 11.9 | – | – |
| CNCCN(C)Cc1n[nH]c2ccc(OCc3ccc(C(C)=O)cc3)cc12 [Compound 23] | 1760 | < 3000 | < 100 | 12 | – | – |
| CNCCN(C)Cc1n[nH]c2ccc(Oc3ccccc3OC)cc12 [Compound 24] | – | – | < 100 | 12.7 | < 3000 | 1930 |
| CNCCN(C)Cc1n[nH]c2ccc(OC3CCOC3)cc12 (stereo not shown) [Compound 25, N^1,N^2-dimethyl-N^1-((5-((tetrahydrofuran-3-yl)oxy)-1H-indazol-3-yl)methyl)ethane-1,2-diamine] | 2660 | < 3000 | ≤ 100 | 81.9 | – | – |
| CNCCN(C)Cc1n[nH]c2ccc(Oc3cccc(C)c3)cc12 [Compound 26] | – | – | < 100 | 44 | 3010 to 12000 | 3070 |
| CNCCN(C)Cc1n[nH]c2ccc(Oc3cccc(Cl)c3)cc12 [Compound 27, N^1-((5-(3-chlorophenoxy)-1H-indazol-3-yl)methyl)-N^1,N^2-dimethylethane-1,2-diamine] | – | – | < 100 | 31.6 | 3010 to 12000 | 4470 |
| CNCCN(C)Cc1n[nH]c2ccc(Oc3cccc(C#N)c3)cc12 [Compound 28] | – | – | < 100 | 22.5 | 3010 to 12000 | 4620 |
